In one data set the target is T1, opioidergic receptors k (Mus musculus, UniProt P33534).
T1 construct: the complete brain (excluding the cerebellum) was quickly dissected and kept in ice; from tissue; host or cells: CD1 mouse complete brain (excluding the cerebellum) homogenate/membranes
Nature of the data set: Radioreceptorial binding, receptors k (3H-U 69.593, brain membranes). Also on record: species or system mice. The following applies: 3H-U 69.593, 25° C. The source says:
The affinity of the compounds synthesized in the preceding examples towards the opioidergic receptors μ, δ, k has been evaluated in vitro by radioreceptorial binding studies by using the method reported hereinunder.
The experimentation has been carried out according to the guide lines of the European Community for the animal experimentation (EEC n. 86/609), by using laboratory animals (male mices CD1 Charles River Italy, Calco, LC, Italy) lodged twenty in a cage, under standard stabulation conditions (temperature 22±2° C., relative humidity 60%, artificial light with a light/dark cycle of 12 hours). The food and water were at disposal ad libitum.
Receptors k: CD1 male mice weighing 20-25 g were used. The animals were sacrificed by cervical dislocation and the complete brain (excluding the cerebellum) was quickly dissected and kept in ice. The tissue was homogeneized in 40 volumes (w/v) of Tris-HCl buffer (50 mM, pH 7.4) by an Ultra-Turrax, then centrifuged for 20 minutes at 48,000×g in a centrifuge kept at 4° C. The resulting […] was suspended again in the same buffer and incubated at 37° C. for 30 minutes in a bath kept under oscillation. At the end of the incubation the suspension was centrifuged 48,000×g for 15 minutes and the pellets suspended again in 10 volumes of the Tris-HCl buffer. The binding experiment was carried out in a volume of 1 ml at the temperature of 25° C. with about 800-1000 μg of proteins for sample. The incubation was carried out for 60 minutes in the,presence of different concentrations of the ligand ^3H-U 69.593 (41.7 Ci/mmole). The non specific binding was determined in the presence of U69593 (10 μM). The incubation was stopped by quick filtering by means of a filtration instrument (Brandell®, Gaithersburg, Md., USA) by using GF/C filters (Whatman®).
The radioactivity was determined by a scintillator in liquid phase (Tricarb® 2100, Packard, Meridien, Ill., USA), by using three ml of scintillating fluid (Ultima Cold MV, Packard, Meridien, Ill., USA).
The protein determination was carried out by the Bradford method (1976) by using the protocol and the reactants supplied by Bio-Rad (Milano, Italy).
The affinity of the compounds towards the receptors μ, δ, κ has been expressed in Ki terms.

A further data set addresses T2, opioidergic receptors δ (Mus musculus, UniProt P32300).
T2 construct: from tissue; host or cells: CD1 mouse total brain (excluding the cerebellum) membranes
Kind of data set: Radioreceptorial binding, receptors δ ([3H]-DPDPE displacement, brain membranes). Also on record: species or system mice. The following applies: 1 nM [3H]-DPDPE, 25° C.

In a further data set the target is T3, opioidergic receptors μ (Mus musculus, UniProt P42866).
T3 construct: from tissue; host or cells: CD1 mouse total brain (excluding the cerebellum) membranes
T3 sequence (P42866 whole entry): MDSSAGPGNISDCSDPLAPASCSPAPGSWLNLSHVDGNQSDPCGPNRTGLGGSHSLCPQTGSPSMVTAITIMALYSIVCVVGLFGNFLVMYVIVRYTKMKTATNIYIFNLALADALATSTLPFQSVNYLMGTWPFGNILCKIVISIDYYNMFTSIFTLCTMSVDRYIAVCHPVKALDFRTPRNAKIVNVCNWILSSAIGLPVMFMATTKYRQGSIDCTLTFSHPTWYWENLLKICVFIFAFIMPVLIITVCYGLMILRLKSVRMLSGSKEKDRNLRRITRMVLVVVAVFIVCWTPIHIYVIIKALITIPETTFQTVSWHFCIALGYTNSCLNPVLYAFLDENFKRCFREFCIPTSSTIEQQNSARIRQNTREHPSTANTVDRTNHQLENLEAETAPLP
Nature of the data set: Radioreceptorial binding, receptors μ ([3H]-DAMGO displacement, brain membranes). The following applies: 1 nM [3H]-DAMGO, 25° C. Also on record: species or system mice.

T2 sequence (P32300 whole entry): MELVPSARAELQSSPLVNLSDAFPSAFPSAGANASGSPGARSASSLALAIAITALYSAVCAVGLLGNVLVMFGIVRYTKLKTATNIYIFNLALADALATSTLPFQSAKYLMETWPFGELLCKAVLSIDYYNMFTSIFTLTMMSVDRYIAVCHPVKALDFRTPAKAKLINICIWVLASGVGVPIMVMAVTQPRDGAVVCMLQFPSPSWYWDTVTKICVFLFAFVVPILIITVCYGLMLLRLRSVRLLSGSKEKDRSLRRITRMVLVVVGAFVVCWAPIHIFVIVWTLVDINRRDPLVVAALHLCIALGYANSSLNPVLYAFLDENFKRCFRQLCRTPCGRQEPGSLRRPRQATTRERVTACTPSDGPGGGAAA
T1 sequence (P33534 whole entry): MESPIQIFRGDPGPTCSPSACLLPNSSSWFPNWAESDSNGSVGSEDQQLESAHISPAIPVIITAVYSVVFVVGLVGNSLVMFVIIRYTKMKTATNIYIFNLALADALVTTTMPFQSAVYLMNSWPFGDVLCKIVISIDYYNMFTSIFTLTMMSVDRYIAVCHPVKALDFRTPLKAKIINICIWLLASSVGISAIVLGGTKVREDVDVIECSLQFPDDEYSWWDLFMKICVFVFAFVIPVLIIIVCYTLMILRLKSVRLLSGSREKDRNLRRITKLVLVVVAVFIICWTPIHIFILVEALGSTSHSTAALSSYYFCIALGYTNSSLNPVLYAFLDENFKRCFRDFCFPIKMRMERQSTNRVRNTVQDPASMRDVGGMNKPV

Broadly, the Ki is a measure of affinity in units of concentration, obtained from inhibition or displacement. Low readings indicate higher affinity, high ones lower affinity. Broadly, the melting point is the temperature of the solid-liquid transition. As for `CCC(=O)N1CCC2CCC(C1)N2C/C=C(\C)c1ccccc1` (stereo not drawn) [I-Aa], the melting point was 230 to 232 °C. The compound further displayed a Ki at opioidergic receptors k of 0.055 ± 0.025 µM. Further, on opioidergic receptors δ, the Ki turned out to be 0.425 ± 0.025 µM. Besides, the Ki at opioidergic receptors μ is 0.0057 ± 0.001 µM.
On the same counts, the results for `CCC(=O)N1CCC2CCC(C1)N2C/C=C(\C)c1ccc(Cl)c(Cl)c1` (stereo not drawn) [I-Ab] are 188 to 189 °C, 0.1 ± 0.005 µM, 0.867 ± 0.044 µM and 0.007 ± 0.0015 µM.
In the same order, the values of `CCC(=O)N1CCC2CCC(C1)N2CC=C(c1ccccc1)c1ccccc1` (stereo not drawn) [I-Ad] are 176 to 177 °C, 0.103 ± 0.007 µM, 0.142 ± 0.025 µM and 0.0107 ± 0.0003 µM.
On the same counts, the results for `CCC(=O)N1C2CCC1CN(C/C=C(\C)c1ccccc1)CC2` (stereo not drawn) [I-Ba] are 228 to 230 °C, 0.9 ± 0.1 µM, 0.933 ± 0.033 µM and 0.0083 ± 0.0012 µM.
Turning to `CCC(=O)N1C2CCC1CN(C/C=C(\C)c1ccc(Cl)c(Cl)c1)CC2` (stereo not drawn) [I-Bb], the melting point was 186 to 188 °C. In addition, affinity on opioidergic receptors k was put at a Ki of 0.393 ± 0.023 µM. This compound also gave a Ki on opioidergic receptors δ of 0.85 ± 0.058 µM. This compound also had a Ki at opioidergic receptors μ of 0.0041 ± 0.00035 µM.
In the same order, the values of `CCC(=O)N1C2CCC1CN(CC=C(c1ccccc1)c1ccccc1)CC2` (stereo not drawn) [I-Bd] are 184 to 186 °C, 1.13 ± 0.186 µM, 0.333 ± 0.005 µM and 0.0207 ± 0.00233 µM.
As for `CCC(=O)N1CCC2CCCC(C1)N2C/C=C(\C)c1ccccc1` (stereo not drawn) [I-Ca], the melting point lay within 106 to 108 °C. Besides, the Ki at opioidergic receptors k turned out to be 0.41 ± 0.01 µM. The same compound displayed a Ki at opioidergic receptors δ of 1.67 ± 0.166 µM. At opioidergic receptors μ, this compound gave an inhibition constant Ki of 0.017 ± 0.0013 µM.
On the same counts, the results for `CCC(=O)N1CCC2CCCC(C1)N2C/C=C(\C)c1ccc(Cl)c(Cl)c1` (stereo not drawn) [I-Cb] are 184 to 185 °C, 0.425 ± 0.038 µM, 1.12 ± 0.216 µM and 0.00425 ± 0.0003 µM.
In the same order, the values of `CCC(=O)N1CCC2CCCC(C1)N2CC=C(c1ccccc1)c1ccccc1` (stereo not drawn) [I-Cc] are 137 to 139 °C, 0.04 ± 0.0001 µM, 0.187 ± 0.0297 µM and 0.00316 ± 0.0006 µM.
The compound `CCC(=O)N1C2CCCC1CN(C/C=C(\C)c1ccccc1)CC2` (stereo not drawn) [I-Da] displayed a melting point of 144 to 146 °C. This compound returned a Ki at opioidergic receptors k of 1.47 ± 0.317 µM. The compound also returned a Ki at opioidergic receptors δ of 3.87 ± 0.125 µM. At opioidergic receptors μ, this compound showed a Ki of 0.04 ± 0.0028 µM.
On the same counts, the results for `CCC(=O)N1C2CCCC1CN(C/C=C(\C)c1ccc(Cl)c(Cl)c1)CC2` (stereo not drawn) [I-Db] are 175 to 176 °C, 1.17 ± 0.12 µM, 3.25 ± 0.166 µM and 0.0175 ± 0.0014 µM.
For `CCC(=O)N1C2CCCC1CN(CC=C(c1ccccc1)c1ccccc1)CC2` (stereo not drawn) [I-Dc], the melting point is 169 to 170 °C. The affinity on opioidergic receptors k corresponds to a Ki of 1.93 ± 0.233 µM. On opioidergic receptors δ, the Ki was determined as 1.69 ± 0.312 µM. In addition, the affinity on opioidergic receptors μ corresponds to a Ki of 0.0233 ± 0.0016 µM.
